# No end group written: not given here.
# What was measured:
# AA amyloid = tested on: AA amyloid; design: species or system H2-Ld-huIL-6 Tg Balb/c transgenic mice; settings: mouse, in vivo, iv
# Method: AA amyloidosis was induced in H2-Ld-huIL-6 Tg Balb/c transgenic mice that constitutively express the human interleukin-6 transgene, [21] by iv administration of 10 µg of isolated amyloid enhancing factor (AEF – a suspension of AA amyloid fibril extract, [22]) in 100 µL of sterile phosphate-buffered saline (PBS). Mice used in these studies were 4–6 wk post induction. These studies were carried out in strict accordance with a protocol approved by the University of Tennessee Institutional Animal Care and Use Committee. All procedures were approved by the IACUC and were performed in accordance with the guidelines provided by OLAW and the Guide for the Care and Use of Laboratory Animals.
# Mice, wild type or those with AA-amyloid, were injected iv in the lateral tail vein with ∼10 µg (∼150 µCi) of radioiodinated (^123I or ^125I) peptide p5, p5R, p5R(1–24) or p5R mixed with 1 mg of unlabeled p5R peptide. […]
# Samples of muscle, liver, spleen, pancreas, kidneys, heart, stomach, small and large intestines and lung tissue were harvested post mortem from every mouse. Each sample was placed into a tared, plastic vial, weighed and the ^125I or ^123I radioactivity measured using an automated Wizard 3 gamma counter (1480 Wallac Gamma Counter, Perkin Elmer). The biodistribution data were expressed as % injected dose/g tissue (% ID/g). […]
# [1] = tested on: cardiac and pancreatic amyloid; settings: SAP imaging; no reference printed at this sentence (refs [14], [15] for SAP imaging); cited from earlier work
# Source text: Currently, there are no FDA-approved agents available in the USA for quantitative whole body imaging of visceral amyloid in vivo. […] However, there is no evidence that either this or the recently FDA-approved Aβ tracer Amyvid™ will facilitate detection of amyloid deposits in other visceral organs. Numerous amyloid-binding radiotracers have been described, e.g ...
Substance,"radioactivity in liver, spleen, pancreas and intestines compared to WT mice (AA amyloid)",detection of cardiac and pancreatic amyloid [1]
GGGYSRAQRAQARQARQAQRAQRAQARQARQ [p5R],"significant radioactivity seen in the liver, spleen, pancreas, and intestines as compared to the WT mice",
"SAP: serum amyloid P component, used as 123I-SAP for planar scintigraphic imaging of amyloid",,"at best, poorly detected"

# From paper PMC3672142, “A Binding-Site Barrier Affects Imaging Efficiency of High Affinity Amyloid-Reactive Peptide Radiotracers In Vivo” (PLoS ONE, 2013)
